# According to patent US6051582A, “Compounds useful for inhibition of farnesyl protein transferase” (Schering Corporation, priority 1998, dated 2000):
# Tests used:
# [1] = system: COS Cell; assay: COS Cell-Based Assay
# Description: (§1) FPT IC50 (inhibition of farnesyl protein transferase, in vitro enzyme assay) and COS Cell IC50 (Cell-Based Assay) were determined following the assay procedures described in WO 95/10516, published Apr. 20, 1995. GGPT IC50 (inhibition of geranylgeranyl protein transferase, in vitro enzyme assay), Cell Mat Assay, and anti-tumor activity (in vivo anti-tumor studies) could be determined by the assay procedures described in WO 95/10516. The disclosure of WO 95/10516 is incorporated herein by reference thereto.
# [2] = biological target: farnesyl protein transferase (Homo sapiens, UniProt P49354+P49356); assay: FPT inhibition, in vitro enzyme assay; assay type: biochemical
# Description: as §1
# Chain of farnesyl protein transferase (P49356 whole entry, one chain of several): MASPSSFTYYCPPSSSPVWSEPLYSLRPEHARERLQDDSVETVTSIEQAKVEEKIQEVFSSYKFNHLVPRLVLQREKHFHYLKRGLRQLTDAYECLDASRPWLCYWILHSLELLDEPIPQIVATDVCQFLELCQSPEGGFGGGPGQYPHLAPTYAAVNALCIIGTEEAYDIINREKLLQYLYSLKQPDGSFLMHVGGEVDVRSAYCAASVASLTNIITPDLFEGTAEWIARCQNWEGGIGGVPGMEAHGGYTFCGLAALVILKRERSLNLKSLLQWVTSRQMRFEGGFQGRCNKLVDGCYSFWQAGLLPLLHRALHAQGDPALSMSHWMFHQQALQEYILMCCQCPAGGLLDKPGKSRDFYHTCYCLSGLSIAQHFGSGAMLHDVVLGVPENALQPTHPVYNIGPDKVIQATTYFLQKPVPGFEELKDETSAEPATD
compound,measurement,setting,value
CC1(CC(=O)N2CCC([C@H]3c4ncc(Br)cc4CCc4cc(Cl)cc(Br)c43)CC2)CCN(S(C)(=O)=O)CC1 [Example 1],IC50,[1],22 nM
same,IC50,[2],19 nM
